IC50 data for 37 compounds are collected here from patent publication US20160039825A1 (BIOGEN MA INC., priority 2013, published 2016).

The structures appear in SMILES notation.

This assay concerns the target T1, Human ATX protein (Homo sapiens, UniProt Q13822).
T1 construct: made in house
As to the kind of experiment: Autotaxin (ATX) assay, FRET with FS-3 substrate. The following applies: upper bound bins (no greater than 100, 250 or 500 nM); FS-3 2 μM, ATX 1.0 μg/mL. The assay is classed as biochemical. The source says: ATX (Autotaxin) is a 125 KDa glycoprotein with lysophospholipase D (LPLD) activity that generates the bioactive lipid lysophosphatidic acid (LPA) from lysophosphatidylcholine (LPC). The ATX biochemical assay utilizes a FRET (fluorescence resonance energy transfer) technology platform. The fluorescence signal of FRET substrate FS-3 is quenched due to intra-molecular FRET of a fluorophore to a non-fluorescing quencher (Ferguson, C. G., et al., Org Lett. 2006 May 11; 8(10): 2023-2026, which is incorporated by reference in its entirety). ATX catalyzes the hydrolysis of the substrate which separates the dabsyl quencher from the fluorescein reporter, which becomes fluorescent. The reaction is monitored by a SpectraMax M5 (Molecular Devices, Sunnyvale, Calif.) with at excitation wavelength 485 nm and emission wavelength […].
Fatty acid free-BSA (Sigma A8806): 10 mg/mL in H2O, stored at 4° C.
2×ATX assay buffer: 100 mM Tris, 280 mM NaCl, 10 mM KCl, 2 mM CaCl2, 2 mM MgCl2, pH 7.4.
Human ATX protein: expressed and purified in house. Stored at −80° C.
Substrate FS-3 (Echelon, L-2000): 100 μg in 77.74 μL H2O (1 mM stock), stored at −20° C.
384-well flat bottom plates—Corning #3575.
Compound dilution—All compounds were provided at 10 mM in 100% DMSO. In the first well, 2 μL of 10 mM compound was added to 78 μL of DMSO (1:40 dilution). In subsequent wells 3-fold dilution (total 10 dilutions) were performed.
1×ATX assay buffer was made up with a final concentration of 1 mg/mL fatty acid free-BSA using 2×ATX assay buffer, 10 mg/ml fatty acid free-BSA and ddH2O.
ATX protein was diluted with 1×ATX assay buffer to a concentration of 1.32 μg/mL (1.32×). 38 μL was added per well to the assay plate. The final concentration of ATX in the reaction as 1.0 μg/mL.
2 μL per well of compounds was transferred to provide the desired concentration. The plate was centrifuged, then incubated at room temperature for 30 minutes on the shaker.
FS-3 was diluted with 1×ATX assay buffer to a concentration of FS-3 of 10 μM (5×). Then, 10 μL was added per well to the assay plate. The final concentration of FS-3 in the reaction was 2 μM. The plate was centrifuged. The plate was kept shaking at room temperature for 2 hours. Because FS-3 substrate is light sensitive, plates were kept covered and protected from light.
Fluorescence was measured using SpectraMax M5 (excitation at 485 nm/emission at 538 nm, top read).
The IC50 is the concentration that gives 50% inhibition. `CNC(=O)c1cc2n(n1)CCN(C(=O)OCc1cc(C(F)(F)F)cc(C(F)(F)F)c1)C2` [Example 482] registered an IC50 of at most 0.1 µM. The compound `O=C(OCc1cc(Cl)cc(Cl)c1)N1CCCn2cncc2C1` [Example 133, 3,5-Dichlorobenzyl 6,7-dihydro-5H-imidazo[1,5-a][1,4]diazepine-8(9H)-carboxylate] showed an IC50 of at most 0.1 µM.

Compound `O=C(O)c1cc2n(n1)CCCN(C(=O)OCc1cc(F)cc(C(F)(F)F)c1)C2` [Example 64, 5-(((3-Fluoro-5-(trifluoromethyl)benzyl)oxy)carbonyl)-5,6,7,8-tetrahydro-4H-pyrazolo[1,5-a][1,4]diazepine-2-carboxylic acid] had an IC50 of at most 0.1 µM. `O=C(OCc1cc(C(F)(F)F)cc(C(F)(F)F)c1)N1CCn2nc(C(=O)N3C4CCCC3CCC4)cc2C1` [Example 487] came in with a 50% inhibitory concentration (IC50) of at most 0.1 µM.

For the compound `O=C(OCc1cc(C(F)(F)F)cc(C(F)(F)F)c1)N1CCCn2nc(C(=O)N3CC4CCC3CN4)cc2C1` (stereo not shown) [Example 224], the IC50 is at most 0.1 µM. Next, `O=C(O)c1cc2n(n1)CCCN(C(=O)OCc1cc(F)cc(Cl)c1)C2` [Example 68, 5-(((3-Chloro-5-fluorobenzyl)oxy)carbonyl)-5,6,7,8-tetrahydro-4H-pyrazolo[1,5-a][1,4]diazepine-2-carboxylic acid]: at most 0.5 µM; `O=C(OCc1cc(C(F)(F)F)cc(C(F)(F)F)c1)N1CCCn2nc(CNC3COC3)cc2C1` [Example 511]: at most 0.25 µM; `O=C(OCc1cc(Cl)cc(C(F)(F)F)c1)N1CCCn2nc(CNC3=NCCN3)cc2C1` [Example 154, 3-chloro-5-(trifluoromethyl)benzyl 2-(((4,5-dihydro-1H-imidazol-2-yl)amino)methyl)-7,8-dihydro-4H-pyrazolo[1,5-a][1,4]diazepine-5(6H)-carboxylate]: at most 0.25 µM. The result for `CC1(C)CNCCN1C(=O)c1cc2n(n1)CCCN(C(=O)OCc1cc(Cl)cc(C(F)(F)F)c1)C2` [Example 207, 3-chloro-5-(trifluoromethyl)benzyl 2-(2,2-dimethylpiperazine-1-carbonyl)-7,8-dihydro-4H-pyrazolo[1,5-a][1,4]diazepine-5(6H)-carboxylate] reads at most 0.1 µM; that for `CC1CC(Nc2cc3n(n2)CCCN(C(=O)OCc2cc(C(F)(F)F)cc(C(F)(F)F)c2)C3)CC(C)N1` (stereo not shown) [Example 322], at most 0.1 µM; that for `CCOC(=O)c1cc2n(n1)CCN(C(=O)OCc1cc(Cl)cc(C(F)(F)F)c1)C2` [Example 402, 5-(3-chloro-5-(trifluoromethyl)benzyl) 2-ethyl 6,7-dihydropyrazolo[1,5-a]pyrazine-2,5(4H)-dicarboxylate], at most 0.1 µM.

The compound `O=C(O)c1cc2n(n1)CCN(C(=O)OCc1cc(C(F)(F)F)cc(C(F)(F)F)c1)C2` [Example 419] came in with a half-maximal inhibitory concentration (IC50) of at most 0.25 µM.

`CC1CC(Nc2cc3n(n2)CCCN(C(=O)OCc2cc(C(F)(F)F)cc(C(F)(F)F)c2)C3)CCN1` (stereo not shown) [Example 315]: the concentration for half-maximal inhibition (IC50) is at most 0.1 µM. The result for `CC1CNCCN1C(=O)c1cc2n(n1)CCCN(C(=O)OCc1cc(Cl)cc(C(F)(F)F)c1)C2` (stereo not shown) [Example 213] reads at most 0.1 µM. `O=C(NC1CCC1)c1cc2n(n1)CCCN(C(=O)OCc1cc(Cl)cc(Cl)c1)C2` [Example 15, 3,5-Dichlorobenzyl 2-(cyclobutylcarbamoyl)-7,8-dihydro-4H-pyrazolo[1,5-a][1,4]diazepine-5(6H)-carboxylate] yielded a concentration for half-maximal inhibition (IC50) of at most 0.1 µM. Next, `CC(c1cc2n(n1)CCCN(C(=O)OCc1cc(Cl)cc(Cl)c1)C2)N1C2CCCC1CCC2` (stereo not shown) [Example 453]: at most 0.25 µM; `O=C(OCc1cc(Cl)cc(C(F)(F)F)c1)N1CCCn2nc(-c3ccncc3)cc2C1` [Example 369, 3-chloro-5-(trifluoromethyl)benzyl 2-(pyridin-4-yl)-7,8-dihydro-4H-pyrazolo[1,5-a][1,4]diazepine-5(6H)-carboxylate]: at most 0.1 µM. In the case of `CCN1CCN(C(=O)c2cc3n(n2)CCCN(C(=O)OCc2cc(Cl)cc(C(F)(F)F)c2)C3)C2(CC2)C1` [Example 179], the concentration for half-maximal inhibition (IC50) was at most 0.1 µM.

`O=C(OCc1cc(C(F)(F)F)cc(C(F)(F)F)c1)N1CCn2nc(C3CN4CCC[C@@H]4CO3)cc2C1` (stereo partly drawn) [Example 256, 3,5-bis(trifluoromethyl)benzyl 2-((8aR)-hexahydro-1H-pyrrolo[2,1-c][1,4]oxazin-3-yl)-6,7-dihydropyrazolo[1,5-a]pyrazine-5(4H)-carboxylate]: the 50% inhibitory concentration (IC50) was at most 0.1 µM. `O=C(O)Cc1cc2n(n1)CCCN(C(=O)OCc1cc(C(F)(F)F)cc(C(F)(F)F)c1)C2` [Example 386, 2-(5-(((3,5-bis(Trifluoromethyl)benzyl)oxy)carbonyl)-5,6,7,8-tetrahydro-4H-pyrazolo[1,5-a][1,4]diazepin-2-yl)acetic acid] gave a half-inhibitory concentration (IC50) of at most 0.1 µM. With `O=C(OCc1cc(C(F)(F)F)cc(C(F)(F)F)c1)N1CCn2nc(C3CCNCC3)cc2C1` [Example 443], the half-maximal inhibitory concentration (IC50) was at most 0.1 µM. `CCN1CCN(C(=O)c2cc3n(n2)CCCN(C(=O)OCc2cc(C(F)(F)F)cc(C(F)(F)F)c2)C3)C(C)(C)C1` [Example 244] gave an IC50 of at most 0.1 µM. In the case of `CC1CNCC(C)N1C(=O)c1cc2n(n1)CCCN(C(=O)OCc1cc(C(F)(F)F)cc(C(F)(F)F)c1)C2` (stereo not shown) [Example 249], the half-maximal inhibitory concentration (IC50) was at most 0.1 µM. Next, `CCC1CN(c2cc3n(n2)CCCN(C(=O)OCc2cc(C(F)(F)F)cc(C(F)(F)F)c2)C3)CCN1` (stereo not shown) [Example 341]: at most 0.1 µM. `O=C1CN(C(=O)c2cc3n(n2)CCCN(C(=O)OCc2cc(Cl)cc(C(F)(F)F)c2)C3)CCN1` [Example 212] returned an IC50 of at most 0.1 µM. `N#CC1CNCCN1C(=O)c1cc2n(n1)CCCN(C(=O)OCc1cc(C(F)(F)F)cc(C(F)(F)F)c1)C2` (stereo not shown) [Example 245] registered a concentration for half-maximal inhibition (IC50) of at most 0.1 µM. As to `CCC1(CC)CNCCN1C(=O)c1cc2n(n1)CCCN(C(=O)OCc1cc(C(F)(F)F)cc(C(F)(F)F)c1)C2` [Example 241], the IC50 is at most 0.1 µM. `N#CC1CN(C(=O)c2cc3n(n2)CCCN(C(=O)OCc2cc(C(F)(F)F)cc(C(F)(F)F)c2)C3)CCN1` (stereo not shown) [Example 246] displayed an IC50 of at most 0.1 µM. The result for `CCOC(=O)c1nn2c(c1Cl)CN(C(=O)OCc1cc(C(F)(F)F)cc(C(F)(F)F)c1)CCC2` [Example 108, 5-(3,5-Bis(trifluoromethyl)benzyl) 2-ethyl 3-chloro-7,8-dihydro-4H-pyrazolo[1,5-a][1.4]diazepine-2,5(6H)-dicarboxylate] reads at most 0.1 µM. As to `CC1COCCN1CC(=O)c1cc2n(n1)CCCN(C(=O)OCc1cc(Cl)cc(C(F)(F)F)c1)C2` (stereo not shown) [Example 257, 3-chloro-5-(trifluoromethyl)benzyl 2-(2-(3-methylmorpholino)acetyl)-7,8-dihydro-4H-pyrazolo[1,5-a][1,4]diazepine-5(6H)-carboxylate], the IC50 is at most 0.1 µM. For `CNC1CN(C(=O)c2cc3n(n2)CCCN(C(=O)OCc2cc(Cl)cc(C(F)(F)F)c2)C3)C1` [Example 202], the IC50 was at most 0.1 µM.

The compound `CC(C)(C)OC(=O)N1CCC(c2cc3n(n2)CCCN(C(=O)OCc2cc(C(F)(F)F)cc(C(F)(F)F)c2)C3)CC1` [Example 374, 3,5-bis(trifluoromethyl)benzyl 2-(1-(tert-butoxycarbonyl)piperidin-4-yl)-7,8-dihydro-4H-pyrazolo[1,5-a][1,4]diazepine-5(6H)-carboxylate] returned an IC50 of at most 0.1 µM. In the case of `O=C(OCc1cc(Cl)cc(C(F)(F)F)c1)N1CCCn2nc(C(=O)N3CCN4CCC[C@H]4C3)cc2C1` [Example 211], the IC50 is at most 0.1 µM. Next, `O=C(O)C1CC2CCC(C1)N2C(=O)c1cc2n(n1)CCN(C(=O)CCc1cc(Cl)cc(Cl)c1)C2` (stereo not shown) [Example 93, 8-(5-(3-(3,5-Dichlorophenyl)propanoyl)-4,5,6,7-tetrahydropyrazolo[1,5-a]pyrazine-2-carbonyl)-8-azabicyclo[3.2.1]octane-3-carboxylic acid]: at most 0.5 µM; `CCOC(=O)c1cn2c(n1)CN(C(=O)OCc1cc(C(F)(F)F)cc(C(F)(F)F)c1)CC2` [Example 3, 7-(3,5-Bis(trifluoromethyl)benzyl) 2-ethyl 5,6-dihydroimidazo[1,2-a]pyrazine-2,7(8H)-dicarboxylate]: at most 0.1 µM; `O=C(OCc1cc(C(F)(F)F)cc(C(F)(F)F)c1)N1CCCn2nc(CN[C@H]3CC[C@@H](C(=O)O)CC3)cc2C1` [Example 288]: at most 0.5 µM. The result for `CC(c1cc2n(n1)CCCN(C(=O)OCc1cc(Cl)cc(Cl)c1)C2)N1CCCCC1` (stereo not shown) [Example 446] reads at most 0.25 µM.
